Source: patent US9302999B2, “Substituted triazoles as herbicides” (E. I. DU PONT DE NEMOURS AND COMPANY, priority 2012, dated 2016)

Columns and labels:
Format in all cases: in vivo
[1] = test system: Russian thistle (Salsola iberica); assay: Test D pre-/postemergence: Russian thistle
Text: Seeds of plant species selected from bluegrass (annual bluegrass, Poa annua), blackgrass (Alopecurus myosuroides), canarygrass (Phalaris minor), chickweed (common chickweed, Stellaria media), galium (catchweed bedstraw, Galium aparine), bromegrass, downy (downy bromegrass, Bromus tectorum), field poppy (Papaver rhoeas), field violet (Viola arvensis), foxtail, green (green foxtail, Setaria viridis), deadnettle (henbit deadnettle, Lamium amplexicaule), ryegrass, Italian (Italian ryegrass, Lolium multiflorum), kochia (Kochia scoparia), lambsquarters (Chenopodium album), oilseed rape (Brassica napus), pigweed (Amaranthus retroflexus), Russian thistle (Salsola iberica), chamomile (scentless chamomile, Matricaria inodora), speedwell (bird's-eye speedwell, Veronica persica), barley, spring (spring barley, Hordeum vulgare), wheat, spring (spring wheat, Triticum aestivum), buckwheat, wild (wild buckwheat, Polygonum convolvulus), mustard, wild (wild mustard, Sinapis arvensis), oat, wild (wild oat, Avena fatua), radish, wild (wild radish, Raphanus raphanistrum), windgrass (Apera spica-venti), barley, winter (winter barley, Hordeum vulgare), and wheat, winter (winter wheat, Triticum aestivum) were planted into a silt loam soil and treated preemergence with test chemicals formulated in a non-phytotoxic solvent mixture which included a surfactant. At the same time, these same crop and weed species were planted in pots containing the planting medium comprising spaghnum peat moss, vermiculite, wetting agent and starter nutrients and treated with postemergence applications of the test chemicals formulated in the same manner. Plants ranged in height from 2 to 18 cm (1- to 4-leaf stage).
(§1) Treated plants and controls were maintained in a controlled growth environment for 14 to 21 days after which time all species were compared to controls and visually evaluated. Plant response ratings, summarized in Table D, are based on a scale of 0 to 100 where 0 is no effect and 100 is complete control. A dash (-) response means no test result.

[2] = test system: Russian thistle (Salsola kali); assay: Test C pre-/postemergence: Russian thistle; conditions: Preemergence
Text: Seeds of plant species selected from blackgrass (Alopecurus myosuroides), bromegrass, downy (downy bromegrass, Bromus tectorum), foxtail, green (green foxtail, Setaria viridis), ryegrass, Italian (Italian ryegrass, Lolium multiflorum), winter wheat (Triticum aestivum), wild oat (Avena fatua), galium (catchweed bedstraw, Galium aparine), bermudagrass (Cynodon dactylon), surinam grass (Brachiaria decumbens), cocklebur (common cocklebur, Xanthium strumarium), corn (Zea mays), large crabgrass (Digitaria sanguinalis), woolly cupgrass (Eriochloa villosa), foxtail, giant (giant foxtail, Setaria faberii), goosegrass (Eleusine indica), johnsongrass (Sorghum halepense), kochia (Kochia scoparia), lambsquarters (Chenopodium album), morningglory (Ipomoea coccinea), nightshade (eastern black nightshade, Solanum ptycanthum), nutsedge, yellow (yellow nutsedge, Cyperus esculentus), pigweed (Amaranthus retroflexus), ragweed (common ragweed, Ambrosia elation), soybean (Glycine max), common (oilseed) sunflower (Helianthus annuus), Russian thistle (Salsola kali) and velvetleaf (Abutilon theophrasti) were planted into a blend of loam soil and sand and treated preemergence with test chemicals formulated in a non-phytotoxic solvent mixture which included a surfactant.
At the same time, plants selected from these crop and weed species and also barley (winter barley, Hordeum vulgare), canarygrass (Phalaris minor), chickweed (common chickweed, Stellaria media) windgrass (Apera spica-venti) and deadnettle (henbit deadnettle, Lamium amplexicaule) were planted in pots containing Redi-Earth® planting medium (Scotts Company, 14111 Scottslawn Road, Marysville, Ohio 43041) comprising spaghnum peat moss, vermiculite, wetting agent and starter nutrients and treated with postemergence applications of test chemicals formulated in the same manner. Plants ranged in height from 2 to 18 cm (1- to 4-leaf stage) for postemergence treatments.
as §1, with “greenhouse” for “controlled growth environment”, “13” for “14”, “15 days,” for “21 days”, “C,” for “D,”

[3] = test system: velvetleaf (Abutilon theophrasti); assay: Test F pre-/postemergence: velvetleaf; conditions: Preemergence
Text: (§2) Seeds of plant species selected from corn (Zea mays), soybean (Glycine max), velvetleaf (Abutilon theophrasti), lambsquarters (Chenopodium album), poinsettia, wild (wild poinsettia, Euphorbia heterophylla), pigweed, palmer (palmer pigweed, Amaranthus palmeri), waterhemp (common waterhemp, Amaranthus rudis), surinam grass (Brachiaria decumbens), crabgrass, Brazil (Brazilian crabgrass, Digitaria horizontalis), panicum, fall (fall panicum Panicum dichotomiflorum), crabgrass, large (large crabgrass, Digitaria sanguinalis), foxtail, giant (giant foxtail, Setaria faberii), foxtail, green (green foxtail Setaria viridis), goosegrass (Eleusine indica), ragweed (common ragweed, Ambrosia elatior), barnyardgrass (Echinochloa crus-galli), sandbur (southern sandbur, Cenchrus echinatus), arrowleaf sida (Sida rhombifolia), ryegrass, Italian (Italian ryegrass, Lolium multiflorum), dayflower, VA (Virginia (VA) dayflower, Commelina virginica), field bindweed (Convolvulus arvensis), cocklebur (common cocklebur, Xanthium strumarium), morningglory (Ipomoea coccinea), nightshade (eastern black nightshade, Solanum ptycanthum), kochia (Kochia scoparia), nutsedge, yellow (yellow nutsedge, Cyperus esculentus), johnsongrass (Sorghum halepense), smartweed (ladysthumb smartweed, Polygonum persicaria), and beggarticks (hairy beggarticks, Bidens pilosa), were planted into a silt loam soil and treated preemergence with test chemicals formulated in a non-phytotoxic solvent mixture which included a surfactant. At the same time, plants selected from these crop and weed species and also pigweed (Amaranthus retroflexus), waterhemp_RES1 (ALS/Triazine resistant common waterhemp, Amaranthus rudis) and waterhemp_RES2 (ALS/HPPD resistant common waterhemp, Amaranthus rudis) were planted in pots containing a planting medium comprising spaghnum peat moss, vermiculite, wetting agent and starter nutrients treated with postemergence applications of some of the test chemicals formulated in the same manner. Plants ranged in height from 2 to 18 cm for postemergence treatments (1- to 4-leaf stage).
as §1, with “greenhouse” for “controlled growth environment”, “days,” for “days”, “E,” for “D,”

[4] = test system: waterhemp (common waterhemp, Amaranthus rudis); assay: Test F pre-/postemergence: waterhemp; conditions: Preemergence
Text: as §2
as §1, with “greenhouse” for “controlled growth environment”, “days,” for “days”, “E,” for “D,”

[5] = test system: foxtail, green (green foxtail Setaria viridis); assay: Test F pre-/postemergence: foxtail, green; conditions: Preemergence
Text: as §2
as §1, with “greenhouse” for “controlled growth environment”, “days,” for “days”, “E,” for “D,”

[6] = Postemergence, 31 g ai/ha, scale 0 to 100 (0 no effect, 100 complete control)
[7] = Postemergence, 62 g ai/ha, scale 0 to 100 (0 no effect, 100 complete control)
[8] = Postemergence, 125 g ai/ha, scale 0 to 100, 0 no effect, 100 complete control
[9] = Postemergence, 250 g ai/ha, scale 0 to 100 (0 no effect, 100 complete control)
[10] = Preemergence, 31 g ai/ha, scale 0 to 100, 0 no effect, 100 complete control
[11] = Preemergence, 62 g ai/ha, scale 0 to 100
[12] = Preemergence, 125 g ai/ha, scale 0 to 100
[13] = Preemergence, 250 g ai/ha, scale 0 to 100
[14] = 31 g ai/ha, scale of 0 to 100, 0 is no effect, 100 is complete control
[15] = 62 g ai/ha, scale of 0 to 100, 0 is no effect, 100 is complete control
[16] = 125 g ai/ha, scale 0 to 100, 0 no effect, 100 complete control
[17] = 250 g ai/ha, scale 0 to 100, 0 no effect, 100 complete control
[18] = Postemergence, 16 g ai/ha, scale 0 to 100
[19] = 16 g ai/ha, scale 0 to 100, 0 no effect, 100 complete control
[20] = 31 g ai/ha, scale 0 to 100, 0 no effect, 100 complete control

SMILES	Plant response rating: Russian Thistle [1, 6]	Plant response rating: Russian Thistle [1, 7]	Plant response rating: Russian Thistle [1, 8]	Plant response rating: Russian Thistle [1, 9]	Plant response rating, Russian Thistle [1, 10]	Plant response rating, Russian Thistle [1, 11]	Plant response rating, Russian Thistle [1, 12]	Plant response rating, Russian Thistle [1, 13]	Plant response rating, Russian Thistle [2, 14]	Plant response rating, Russian Thistle [2, 15]	Plant response rating, Russian Thistle [2, 16]	Plant response rating, Russian Thistle [2, 17]	Plant response rating, Russian Thistle [1, 18]	other results
FC(F)(F)COc1nn(-c2ccc(C(F)(F)F)cc2)nc1Cc1ccnc(C(F)(F)F)c1 [Compound 14, 4-[[5-(2,2,2-trifluoroethoxy)-2-[4-(trifluoromethyl)phenyl]-2H-1,2,3-triazol-4-yl]methyl]-2-(trifluoromethyl)pyridine]	0	75	100	100	0	0	10	40	10	90	95	95		
COc1nn(-c2ccc(C(F)(F)F)cc2)nc1Cc1ccnc(C(F)(F)F)c1 [Compound 15, 4-[[5-methoxy-2-[4-(trifluoromethyl)phenyl]-2H-1,2,3-triazol-4-yl]methyl]-2-(trifluoromethyl)pyridine]	100	100	100	100	0	0	80	80	50	95	100		60	Plant response rating, Russian Thistle ([2]; 16 g ai/ha, scale 0 (no effect) to 100 (complete control)): 5
Cc1nn(-c2ccc(C(F)(F)F)cn2)nc1Oc1ccnc(C(F)(F)F)c1 [Compound 23]	50	70	90	100									50	
Fc1ccc(-n2nc(Cc3ccnc(C(F)(F)F)c3)c(OC(F)F)n2)cc1 [Compound 25]									0		90	90		
FC(F)Oc1nn(-c2ccc(C(F)(F)F)cc2)nc1Cc1ccnc(C(F)(F)F)c1 [Compound 26]										80	95	95		
Cc1nn(-c2ccc(C(F)(F)F)cn2)nc1Cc1cccc(C(F)(F)F)c1 [Compound 106]	25	30	60	100	0	0	0	0	0	5	30	100	20	
Cc1nn(-c2ccc(C(F)(F)F)cc2)nc1Oc1ccnc(C(F)(F)F)c1 [Compound 120]	95	98	100	100	100	100	100	100	0		85	100	95	Plant response rating, Russian Thistle ([1]; Preemergence, 16 g ai/ha, scale 0 to 100, 0 no effect, 100 complete control): 100
COc1nn(-c2ccc(C(F)(F)F)cc2)nc1Cc1ccnc(C(F)F)c1 [Compound 138]	75	90	95	100					85	90	90	100	50	
CCc1nn(-c2ccc(F)cc2)nc1Cc1ccnc(C(F)(F)F)c1 [Compound 154]														Plant response rating, Velvetleaf [3, 19]: 0; Plant response rating, Velvetleaf [3, 20]: 20; Plant response rating, Velvetleaf ([3]; 125 g ai/ha, scale 0 to 100): 40; Plant response rating, Velvetleaf ([3]; 250 g ai/ha, scale 0 to 100): 100; Plant response rating, Waterhemp [4, 19]: 50; Plant response rating, Waterhemp [4, 20]: 60; Plant response rating, Waterhemp ([4]; 125 g ai/ha, scale 0 to 100): 100; Plant response rating, Waterhemp ([4]; 250 g ai/ha, scale 0 to 100): 100; Plant response rating, Foxtail, Green [5, 19]: 40; Plant response rating, Foxtail, Green [5, 20]: 75; Plant response rating, Foxtail, Green ([5]; 62 g ai/ha, scale 0 to 100): 100; Plant response rating, Foxtail, Green ([5]; 125 g ai/ha, scale 0 to 100): 100; Plant response rating, Foxtail, Green ([5]; 250 g ai/ha, scale 0 to 100): 100
Cc1nn(-c2ccc(F)c(C(F)(F)F)c2)nc1Cc1ccnc(C(F)(F)F)c1 [Compound 156]	85	90	80										60	
